Measured values as given in patent US7632857B2, “Histamine H3 receptor agents, preparation and therapeutic uses” (Eli Lilly and Company, priority 2004, dated 2009).

Molecular target: T1, H3R (Homo sapiens, UniProt Q9Y5N1)
T1 construct: expressed in transfected cells; pcDNA3.1(+) vector, G418 selection)
Experiment: [35S] GTP γ [S] binding assay, antagonist activity in the presence of agonist
Type: biochemical
Conditions: membranes from H3R8-expressing HEK293 cell line; agonist R(−)alpha methylhistamine
Experimental: Membranes isolated as described in (Preparation of Histamine Receptor Subtype Membranes) were used in a [35S]GTPχS functional assay. Binding of [35S]GTPχS to membranes indicates agonist activity. Compounds of the invention of Formula I or Formula II were tested for their ability to inhibit binding in the presence of agonists. Alternately, the same transfected cell lines were used for a cAMP assay wherein H3R agonists inhibited forskolin-activated synthesis of cAMP. Compounds of Formula I or Formula II were tested for their ability to permit forskolin-stimulated cAMP synthesis in the presence of agonist.
cDNA for the human histamine 3 receptor was cloned and expressed as described in (A. Preparation H1R membranes), above. Transfected cells were selected using G418 (500μ/ml), grown, and tested for histamine binding by the SPA described above. For total binding, cells were assayed in a SPA reaction described above containing 50 mM Tris-HCL (assay buffer), pH 7.6, 1 mg wheat germ agglutinin SPA beads (Amersham Pharmacia Biotech, #RPNQ0001), and 1 nM (3H)-n-alpha-methylhistamine (NEN, NET1027) (total volume per well=200 μl). Thioperimide was added to determine non-specific binding. […]
Antagonist activity of selected compounds was tested for inhibition of [35S] […] Plates were counted in Wallac Trilux 1450 Microbeta scintillation counter for 1 minute. […]

T1 sequence (Q9Y5N1 whole entry): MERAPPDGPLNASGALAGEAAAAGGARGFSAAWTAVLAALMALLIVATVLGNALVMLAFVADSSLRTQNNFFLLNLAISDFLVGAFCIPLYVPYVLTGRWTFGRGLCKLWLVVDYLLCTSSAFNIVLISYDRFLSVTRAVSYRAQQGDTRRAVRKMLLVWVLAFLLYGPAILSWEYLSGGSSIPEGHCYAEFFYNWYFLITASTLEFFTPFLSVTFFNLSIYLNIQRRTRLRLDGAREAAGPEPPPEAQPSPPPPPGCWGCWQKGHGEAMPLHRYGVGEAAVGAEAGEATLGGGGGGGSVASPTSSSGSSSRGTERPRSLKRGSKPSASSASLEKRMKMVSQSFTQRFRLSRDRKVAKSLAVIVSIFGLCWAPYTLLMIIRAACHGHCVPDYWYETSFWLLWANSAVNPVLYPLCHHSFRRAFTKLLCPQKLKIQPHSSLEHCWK

| Ki [nM] | Compound |
| --- | --- |
| 32 | O=C(c1ccc(-c2ccc(OCCN3CCCCC3)cc2)cc1)N1CCC[C@H]1CN1CCCC1 |
| 4.9 | O=C(c1ccc(-c2ccccn2)cc1)N1CCC[C@H]1CN1CCCC1 |
